According to patent publication US7772241B2, “Variolin derivatives and their use as antitumor agents” (Pharma Mar S.A., priority 2001, dated 2010):
Like-named read-outs stand apart in the source and are kept apart here.

Tests used:
A-549 = assay: Inhibition of cells growth by colorimetric (SRB) assay, A-549; conditions: for GI50 / CC50: Homo sapiens, A549, 48 h; for GI50: read-out: GI50 A-549, SRB assay, 48 hours exposure; for TGI A-549: SRB assay, 48 hours exposure
Method in brief: (§1)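 Human tumour cells seeded at 5×10^3/well in RPMI 1640 10% FBS, attached 18 h, then exposed 48 h to samples at 10 to 10^−8 μg/ml in DMSO/EtOH/PBS (0.5:0.5:99). Growth read by SRB staining after TCA fixation, OD 490 nm, triplicate wells; GI, TGI and LC derived.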

[1] = Inhibition of cells growth by colorimetric (SRB) assay, HMEC1
HMEC1 = assay: as above; conditions: for GI50: Homo sapiens, HMEC-1, 48 h, read-out: GI50 H-MEC-1, SRB assay, 48 hours exposure; for TGI H-MEC-1: SRB assay, 48 hours exposure
PANC-1 = assay: Inhibition of cells growth by colorimetric (SRB) assay, PANC-1; conditions: Homo sapiens, PANC-1, 48 h, read-out: GI50 PANC-1, SRB assay, 48 hours exposure
Method in brief: as §1

IGROV-1 = assay: Inhibition of cells growth by colorimetric (SRB) assay, IGROV-1; conditions: for GI50 / CC50: Homo sapiens, IGROV-1, 48 h; for GI50: read-out: GI50 IGROV, SRB assay, 48 hours exposure; for TGI IGROV: SRB assay, 48 hours exposure
Method in brief: as §1

LNCaP = assay: Inhibition of cells growth by colorimetric (SRB) assay, LNCaP; conditions: for GI50 / CC50: Homo sapiens, LNCaP, 48 h; for GI50: read-out: GI50 LN-caP, SRB assay, 48 hours exposure; for TGI LN-caP: SRB assay, 48 hours exposure
Method in brief: as §1

SK-OV-3 = assay: Inhibition of cells growth by colorimetric (SRB) assay, SK-OV-3; conditions: for GI50 / CC50: Homo sapiens, SK-OV-3, 48 h; for GI50: read-out: GI50 SKOV-3, SRB assay, 48 hours exposure; for TGI SKOV-3: SRB assay, 48 hours exposure
Method in brief: as §1

SK-BR-3 = assay: Inhibition of cells growth by colorimetric (SRB) assay, SK-BR-3; conditions: for GI50 / CC50: Homo sapiens, SK-BR-3, 48 h; for GI50: read-out: GI50 SK-BR-3, SRB assay, 48 hours exposure; for TGI SK-BR-3: SRB assay, 48 hours exposure
Method in brief: as §1

DU-145 = assay: Inhibition of cells growth by colorimetric (SRB) assay, DU-145; conditions: for GI50 / CC50: Homo sapiens, DU-145, 48 h; for GI50: read-out: GI50 DU-145, SRB assay, 48 hours exposure; for TGI DU-145: SRB assay, 48 hours exposure
Method in brief: as §1

IGROV-ET = assay: Inhibition of cells growth by colorimetric (SRB) assay, IGROV-ET; conditions: for GI50 / CC50: Homo sapiens, 48 h; for GI50: read-out: GI50 IGROV-ET, SRB assay, 48 hours exposure; for TGI IGROV-ET: SRB assay, 48 hours exposure
Method in brief: as §1

K-562 = assay: Inhibition of cells growth by colorimetric (SRB) assay, K-562; conditions: for GI50 / CC50: Homo sapiens, K562, 48 h; for GI50: read-out: GI50 K-562, SRB assay, 48 hours exposure; for TGI K-562: SRB assay, 48 hours exposure
Method in brief: as §1

SK-MEL-28 = assay: Inhibition of cells growth by colorimetric (SRB) assay, SK-MEL-28; conditions: for GI50 / CC50: Homo sapiens, SK-MEL-28, 48 h; for GI50: read-out: GI50 MEL-28, SRB assay, 48 hours exposure; for TGI MEL-28: SRB assay, 48 hours exposure
Method in brief: as §1

[2] = read-out: LC50 A-549, SRB assay, 48 hours exposure
[3] = human, HMEC1 cells, LC50 H-MEC-1, SRB assay, 48 hours exposure
[4] = read-out: LC50 IGROV, SRB assay, 48 hours exposure
[5] = read-out: LC50 LN-caP, SRB assay, 48 hours exposure
[6] = read-out: LC50 SKOV-3, SRB assay, 48 hours exposure
[7] = read-out: LC50 SK-BR-3, SRB assay, 48 hours exposure
[8] = read-out: LC50 DU-145, SRB assay, 48 hours exposure
[9] = read-out: LC50 IGROV-ET, SRB assay, 48 hours exposure
[10] = read-out: LC50 K-562, SRB assay, 48 hours exposure
[11] = read-out: LC50 MEL-28, SRB assay, 48 hours exposure

In the case of COc1ccc(CNc2ccnc3c2c(-c2ccnc([S+](C)[O-])n2)c2ccnc(NCc4ccc(OC)cc4)n23)cc1 (stereo not shown) [Compound 86], the GI50 (A-549) is reported as at least 17.3 µM, the CC50 (A-549; [2]) is reported as at least 17.3 µM and the “TGI A-549” value (A-549) is reported as 1.73E−05. The CC50 at 48 h [1, 3] was at least 17.3 µM, the GI50 (HMEC1) was 7.99 µM and the “TGI H-MEC-1” value (HMEC1; in M (unit assumed)) was 1.73E−05. It also gave a GI50 (PANC-1) of at least 17.3 µM, a GI50 (IGROV-1) of at least 17.3 µM and a CC50 (IGROV-1; [4]) of at least 17.3 µM. The “TGI IGROV” value (IGROV-1) was 1.73E−05, the GI50 (LNCaP) was at least 17.3 µM and the CC50 (LNCaP; [5]) was at least 17.3 µM. For the same compound, the “TGI LN-caP” value (LNCaP) was 1.73E−05, the GI50 (SK-OV-3) was at least 17.3 µM and the CC50 (SK-OV-3; [6]) was at least 17.3 µM. The “TGI SKOV-3” value (SK-OV-3) was 1.73E−05, the GI50 (SK-BR-3) was at least 17.3 µM and the CC50 (SK-BR-3; [7]) was at least 17.3 µM. The “TGI SK-BR-3” value (SK-BR-3) was 1.73E−05, the GI50 (DU-145) was at least 17.3 µM and the CC50 (DU-145; [8]) was at least 17.3 µM. The “TGI DU-145” value (DU-145) was 1.73E−05, the GI50 (IGROV-ET) was at least 17.3 µM and the CC50 (IGROV-ET; [9]) was at least 17.3 µM. The “TGI IGROV-ET” value (IGROV-ET) was 1.73E−05, the GI50 (K-562) was at least 17.3 µM and the CC50 (K-562; [10]) was at least 17.3 µM. The “TGI K-562” value (K-562) was 1.73E−05, the GI50 (SK-MEL-28) was at least 17.3 µM and the CC50 (SK-MEL-28; [11]) was at least 17.3 µM. For the same compound, the “TGI MEL-28” value (SK-MEL-28) was 1.73E−05.
In the case of COc1ccc(CNc2ccnc3c2c(-c2ccnc(OC)n2)c2ccnc(NCc4ccc(OC)cc4)n23)cc1 [Compound 87], the GI50 (A-549) is reported as 17.3 µM, the CC50 (A-549; [2]) is reported as 17.3 µM and the “TGI A-549” value (A-549) is reported as 1.73E−05. For the same compound, the CC50 at 48 h [1, 3] was 17.3 µM, the GI50 (HMEC1) was 7.3 µM and the “TGI H-MEC-1” value (HMEC1; in M (unit assumed)) was 1.73E−05. The GI50 (PANC-1) was 17.3 µM, the GI50 (IGROV-1) was 17.3 µM and the CC50 (IGROV-1; [4]) was 17.3 µM. The “TGI IGROV” value (IGROV-1) was 1.73E−05, the GI50 (LNCaP) was 17.3 µM and the CC50 (LNCaP; [5]) was 17.3 µM. For the same compound, the “TGI LN-caP” value (LNCaP) was 1.73E−05, the GI50 (SK-OV-3) was 17.3 µM and the CC50 (SK-OV-3; [6]) was 17.3 µM. The “TGI SKOV-3” value (SK-OV-3) was 1.73E−05, the GI50 (SK-BR-3) was 17.3 µM and the CC50 (SK-BR-3; [7]) was 17.3 µM. For the same compound, the “TGI SK-BR-3” value (SK-BR-3) was 1.73E−05, the GI50 (DU-145) was 18.3 µM and the CC50 (DU-145; [8]) was 17.3 µM. For the same compound, the “TGI DU-145” value (DU-145) was 1.73E−05, the GI50 (IGROV-ET) was 17.3 µM and the CC50 (IGROV-ET; [9]) was 17.3 µM. For the same compound, the “TGI IGROV-ET” value (IGROV-ET) was 1.73E−05, the GI50 (K-562) was 17.3 µM and the CC50 (K-562; [10]) was 17.3 µM. For the same compound, the “TGI K-562” value (K-562) was 1.73E−05, the GI50 (SK-MEL-28) was 17.3 µM and the CC50 (SK-MEL-28; [11]) was 17.3 µM. The “TGI MEL-28” value (SK-MEL-28) was 1.73E−05.
In the case of COc1nccc(-c2c3c(Cl)ccnc3n3c(N)nccc23)n1 [Compound 112], the GI50 (A-549) is reported as 1.38 µM, the CC50 (A-549; [2]) is reported as 30.6 µM and the “TGI A-549” value (A-549) is reported as 4.35E−06. The CC50 at 48 h [1, 3] was 11.9 µM, the GI50 (HMEC1) was 1.27 µM and the “TGI H-MEC-1” value (HMEC1; in M (unit assumed)) was 4.71E−06. For the same compound, the GI50 (PANC-1) was 6.34 µM, the GI50 (IGROV-1) was 1.65 µM and the CC50 (IGROV-1; [4]) was 30.6 µM. The “TGI IGROV” value (IGROV-1) was 7.59E−06, the GI50 (LNCaP) was 0.872 µM and the CC50 (LNCaP; [5]) was 2.62 µM. For the same compound, the “TGI LN-caP” value (LNCaP) was 1.51E−06, the GI50 (SK-OV-3) was 0.989 µM and the CC50 (SK-OV-3; [6]) was 30.6 µM. The “TGI SKOV-3” value (SK-OV-3) was 2.30E−06, the GI50 (SK-BR-3) was 2.01 µM and the CC50 (SK-BR-3; [7]) was 27.8 µM. For the same compound, the “TGI SK-BR-3” value (SK-BR-3) was 7.13E−06, the GI50 (DU-145) was 0.716 µM and the CC50 (DU-145; [8]) was 3.06 µM. For the same compound, the “TGI DU-145” value (DU-145) was 1.72E−06, the GI50 (IGROV-ET) was 7.65 µM and the CC50 (IGROV-ET; [9]) was 30.6 µM. For the same compound, the “TGI IGROV-ET” value (IGROV-ET) was 1.91E−05, the GI50 (K-562) was 1.4 µM and the CC50 (K-562; [10]) was 30.6 µM. The “TGI K-562” value (K-562) was 8.66E−06, the GI50 (SK-MEL-28) was 0.321 µM and the CC50 (SK-MEL-28; [11]) was 16.6 µM. The “TGI MEL-28” value (SK-MEL-28) was 5.29E−06.
In the case of Nc1nccc(-c2c3c(O)ccnc3n3c(N)nccc23)n1 [Variolin B1, variolin B, reference compound], the GI50 (A-549) is reported as 0.985 µM, the CC50 (A-549; read-out: LC50 A-549) is reported as 3.41 µM and the “TGI A-549” value (A-549) is reported as 2.21E−06. The CC50 at 48 h [1] was 6.07 µM, the GI50 (HMEC1) was 0.273 µM and the “TGI H-MEC-1” value (HMEC1) was 7.50E−07. It also gave a GI50 (PANC-1) of 1.68 µM, a GI50 (IGROV-1) of 1.14 µM and a CC50 (IGROV-1; read-out: LC50 IGROV) of 34.1 µM. The “TGI IGROV” value (IGROV-1) was 2.90E−06, the GI50 (LNCaP) was 0.0539 µM and the CC50 (LNCaP; read-out: LC50 LN-caP) was 1.41 µM. For the same compound, the “TGI LN-caP” value (LNCaP) was 2.10E−06, the GI50 (SK-OV-3) was 1.21 µM and the CC50 (SK-OV-3; read-out: LC50 SKOV-3) was 34.1 µM. The “TGI SKOV-3” value (SK-OV-3) was 3.32E−06, the GI50 (SK-BR-3) was 0.848 µM and the CC50 (SK-BR-3; read-out: LC50 SK-BR-3) was 27.7 µM. The “TGI SK-BR-3” value (SK-BR-3) was 2.31E−06, the GI50 (DU-145) was 0.893 µM and the CC50 (DU-145; read-out: LC50 DU-145) was 19.9 µM. For the same compound, the “TGI DU-145” value (DU-145) was 2.10E−06, the GI50 (IGROV-ET) was 1.28 µM and the CC50 (IGROV-ET; read-out: LC50 IGROV-ET) was 34.1 µM. For the same compound, the “TGI IGROV-ET” value (IGROV-ET) was 2.82E−06, the GI50 (K-562) was 1.55 µM and the CC50 (K-562; read-out: LC50 K-562) was 34.1 µM. For the same compound, the “TGI K-562” value (K-562) was 3.92E−06, the GI50 (SK-MEL-28) was 1.2 µM and the CC50 (SK-MEL-28; read-out: LC50 MEL-28) was 2.8 µM. The “TGI MEL-28” value (SK-MEL-28) was 2.13E−06.
